Assay results published in patent US20180148418A1, “AMIDO-SUBSTITUTED CYCLOHEXANE DERIVATIVES” (Bayer Pharma Aktiengesellschaft, priority 2015, published 2018).

Key:
[1] = test system: HEK293 cells cotransfected with the FOP control vector; test: HEK293 FOP assay (control reporter with non-functional TCF elements); format: cell-based; details: Homo sapiens, 16 hours
Summary of the method: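 Compound series from 50 μM down to 15 nM, prediluted in DMSO then 50-fold into CAFTY buffer (pH 7.4, 2 mM Ca2+, 0.01% BSA), tested alongside TOP cells on a Geneticin-selected HEK293 FOP line whose TCF elements are replaced by a random sequence; recombinant human Wnt-3a applied at 2500-5 ng/ml.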

[2] = target: T1, TNKS1 (Homo sapiens, UniProt O95271); test: TNKS1 Assay B (auto-parsylation, [3H]-NAD+ SPA); format: biochemical; details: 6 nM TNKS1, auto-parsylation, over night at room temperature
T1 construct: purchased BPS Bioscience, San Diego, USA 80579 (TNKS1 Histone Ribosylation Assay Kit)
T1 sequence (O95271 1-1327): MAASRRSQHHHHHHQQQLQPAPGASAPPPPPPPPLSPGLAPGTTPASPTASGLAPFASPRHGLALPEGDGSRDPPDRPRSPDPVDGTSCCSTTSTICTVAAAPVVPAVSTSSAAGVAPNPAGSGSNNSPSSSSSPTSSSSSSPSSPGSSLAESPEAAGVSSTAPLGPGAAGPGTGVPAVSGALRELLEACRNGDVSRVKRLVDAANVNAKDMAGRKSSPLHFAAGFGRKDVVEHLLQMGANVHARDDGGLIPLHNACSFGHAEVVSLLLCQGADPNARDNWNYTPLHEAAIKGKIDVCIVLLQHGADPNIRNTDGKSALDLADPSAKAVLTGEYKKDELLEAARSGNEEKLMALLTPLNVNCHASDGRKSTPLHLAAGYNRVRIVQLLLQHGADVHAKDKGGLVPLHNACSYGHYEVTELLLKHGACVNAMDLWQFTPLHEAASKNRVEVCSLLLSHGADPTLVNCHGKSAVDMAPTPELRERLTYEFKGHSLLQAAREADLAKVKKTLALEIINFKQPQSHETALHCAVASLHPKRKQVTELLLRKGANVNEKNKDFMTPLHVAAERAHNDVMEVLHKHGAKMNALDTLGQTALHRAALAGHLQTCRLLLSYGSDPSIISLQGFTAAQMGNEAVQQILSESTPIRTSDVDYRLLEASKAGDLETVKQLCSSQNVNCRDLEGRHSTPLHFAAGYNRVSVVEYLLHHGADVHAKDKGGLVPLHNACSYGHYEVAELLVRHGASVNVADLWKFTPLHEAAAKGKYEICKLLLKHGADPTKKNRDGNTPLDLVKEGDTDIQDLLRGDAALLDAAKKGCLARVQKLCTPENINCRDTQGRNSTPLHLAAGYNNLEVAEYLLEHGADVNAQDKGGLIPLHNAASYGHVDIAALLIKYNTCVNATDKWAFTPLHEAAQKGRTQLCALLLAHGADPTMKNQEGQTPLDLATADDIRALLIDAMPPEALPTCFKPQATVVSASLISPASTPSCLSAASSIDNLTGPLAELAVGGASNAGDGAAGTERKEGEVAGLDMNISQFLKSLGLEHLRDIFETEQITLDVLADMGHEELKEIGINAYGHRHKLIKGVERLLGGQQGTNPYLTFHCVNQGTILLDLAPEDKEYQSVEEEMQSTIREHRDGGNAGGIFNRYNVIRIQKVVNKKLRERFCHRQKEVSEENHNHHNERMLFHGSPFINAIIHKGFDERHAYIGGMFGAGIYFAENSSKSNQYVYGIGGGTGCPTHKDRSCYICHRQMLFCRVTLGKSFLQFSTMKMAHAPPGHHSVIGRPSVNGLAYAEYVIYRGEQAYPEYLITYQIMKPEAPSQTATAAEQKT
Description: The potency of selected compounds according to the invention was assessed applying a modified in vitro inhibition assay. Here, the TNKS1 catalyzed NAD^+-dependent ribosylation of the enzyme itself (auto-parsylation) was detected using [^3H]-NAD^+ as substrate and applying the scintillation proximity assay (SPA) method to detect tritium-labeled, parsylated TNKS1. The intensity of the readout signal is proportional to the incorporated [^3H]-NAD^+. Inhibition of TNKS1 leads to a decreased incorporation of [^3H]-NAD^+ and consequently to a lower readout signal intensity. The concentration of a test compound which inhibits the enzyme activity by 50% (corresponds to half of the normed readout signal intensity) is reported as IC50.
Protocol Auto-Parsylation Assay
The assay was conducted in a 96 well MTP format with the identical TNKS1 enzyme sample and NAD^+ sample as in the histone ribosylation assay with the following modifications: TNKS1 enzyme sample was diluted with a modified assay buffer (50 mM MES pH 7.0, 1 mM DTT, 0.01% Triton X-100) to a final concentration of 6 nM TNKS1 and 10×NAD^+ solution was diluted with the modified assay buffer (s. above) to a final 0.445×NAD^+ solution doped with 100 Bq/μl [^3H]-NAD^+[Catalog #NET443H050UC, Perkin Elmer, Waltham, Mass., USA]. Substrate solution (10 μl) was incubated with different test compound concentrations (2.5 ul in 10% DMSO in modified assay buffer) or control (2.5 ul 10% DMSO in modified assay buffer only) and enzyme (10 μl) over night at room temperature. Incorporated tritium was measured after addition of 50 μl SPA beads (1 mg/ml) [Catalog #RPNQ0095 20 mg/ml, Perkin Elmer, Waltham, Mass., USA; diluted 1:10 with Dulbecco's phosphate buffered saline, PBS Catalog #D8537, Sigma-Aldrich, Steinheim, Germany] and detection of the photon emission with a beta count plate reader [Wallac MicroBeta®, Perkin Elmer, Waltham, Mass., USA].

SMILES	IC50 [1] [nM]	IC50 [2] [nM]
COCC(C)NC(=O)c1nc[nH]c1C(=O)N[C@H]1CC[C@H](C(=O)Nc2cnccc2Cl)CC1 (stereo partly drawn) [Example 99, N^5-{trans-4-[(4-chloropyridin-3-yl)carbamoyl]cyclohexyl}-N^4-(1-methoxypropan-2-yl)-1H-imidazole-4,5-dicarboxamide]	20000	68
Cc1cc(NC(=O)[C@H]2CC[C@H](NC(=O)c3[nH]cnc3C(=O)NCC(C)(C)O)CC2)c(Cl)cc1F [Example 100, N^5-{trans-4-[(2-chloro-4-fluoro-5-methylphenyl)carbamoyl]cyclohexyl}-N^4-(2-hydroxy-2-methylpropyl)-1H-imidazole-4,5-dicarboxamide]	39000	180
COC(C)(C)CNC(=O)c1nc[nH]c1C(=O)N[C@H]1CC[C@H](C(=O)Nc2cc(C)c(F)cc2Cl)CC1 [Example 101, N^5-{trans-4-[(2-chloro-4-fluoro-5-methylphenyl)carbamoyl]cyclohexyl}-N^4-(2-methoxy-2-methylpropyl)-1H-imidazole-4,5-dicarboxamide]	35000	160
Cc1cc(C)n2ncc(C(=O)N[C@H]3CC[C@H](C(=O)Nc4ccncc4Cl)CC3)c2n1 [Example 102, N-{trans-4-[(3-chloropyridin-4-yl)carbamoyl]cyclohexyl}-5,7-dimethylpyrazolo[1,5-a]pyrimidine-3-carboxamide]	≥ 50000	330
O=C(N[C@H]1CC[C@H](C(=O)Nc2ccncc2Cl)CC1)c1cnc2cccnn12 [Example 103, N-{trans-4-[(3-chloropyridin-4-yl)carbamoyl]cyclohexyl}imidazo[1,2-b]pyridazine-3-carboxamide]	27000	520
Cc1cnc2c(C(=O)N[C@H]3CC[C@H](C(=O)Nc4ccncc4Cl)CC3)cnn2c1 [Example 104, N-{trans-4-[(3-chloropyridin-4-yl)carbamoyl]cyclohexyl}-6-methyl pyrazolo[1,5-a]pyrimidine-3-carboxamide]	≥ 50000	63
O=C(N[C@H]1CC[C@H](C(=O)Nc2ccncc2Cl)CC1)c1cnn2cccnc12 [Example 105, N-{trans-4-[(3-chloropyridin-4-yl)carbamoyl]cyclohexyl}pyrazolo[1,5-a]pyrimidine-3-carboxamide]	≥ 50000	190
CCOC(=O)c1cnc2c(C(=O)N[C@H]3CC[C@H](C(=O)Nc4ccc(F)cc4Cl)CC3)cnn2c1 [Example 106, ethyl 3-({trans-4-[(2-chloro-4-fluorophenyl)carbamoyl]cyclohexyl}carbamoyl)pyrazolo[1,5-a]pyrimidine-6-carboxylate]	≥ 50000	49
O=C(N[C@H]1CC[C@H](C(=O)Nc2ccc(F)cc2Cl)CC1)c1cnn2ccc(N3CCOCC3)nc12 [Example 107, N-{trans-4-[(2-chloro-4-fluorophenyl)carbamoyl]cyclohexyl}-5-(morpholin-4-yl)pyrazolo[1,5-a]pyrimidine-3-carboxamide]	≥ 50000	120
O=C(N[C@H]1CC[C@H](C(=O)Nc2ccc(F)cc2Cl)CC1)c1cnn2ccc(N3CCCC3)nc12 [Example 108]	≥ 50000	52
CN1CCN(c2ccn3ncc(C(=O)N[C@H]4CC[C@H](C(=O)Nc5ccc(F)cc5Cl)CC4)c3n2)CC1 [Example 109]	≥ 50000	62
COCc1cc(C)n2ncc(C(=O)N[C@H]3CC[C@H](C(=O)Nc4ccc(F)cc4Cl)CC3)c2n1 [Example 110, N-{trans-4-[(2-chloro-4-fluorophenyl)carbamoyl]cyclohexyl}-5-(methoxymethyl)-7-methylpyrazolo[1,5-a]pyrimidine-3-carboxamide]	≥ 50000	310
COCc1cc(C)nc2c(C(=O)N[C@H]3CC[C@H](C(=O)Nc4ccc(F)cc4Cl)CC3)cnn12 [Example 111, N-{trans-4-[(2-chloro-4-fluorophenyl)carbamoyl]cyclohexyl}-7-(methoxymethyl)-5-methylpyrazolo[1,5-a]pyrimidine-3-carboxamide]	≥ 50000	520
COCc1cc(C)n2ncc(C(=O)N[C@H]3CC[C@H](C(=O)Nc4c(F)cc(F)cc4Cl)CC3)c2n1 [Example 112, N-{trans-4-[(2-chloro-4,6-difluorophenyl)carbamoyl]cyclohexyl}-5-(methoxymethyl)-7-methylpyrazolo[1,5-a]pyrimidine-3-carboxamide]	≥ 50000	150
Cc1nc2c(C(=O)N[C@H]3CC[C@H](C(=O)Nc4ccc(F)cc4Cl)CC3)cnn2c2c1CCC2 [Example 113, N-{trans-4-[(2-chloro-4-fluorophenyl)carbamoyl]cyclohexyl}-5-methyl-7,8-dihydro-6H-cyclopenta[e]pyrazolo[1,5-a]pyrimidine-3-carboxamide]	≥ 50000	110
CC(O)CNc1ccc2ncc(C(=O)N[C@H]3CC[C@H](C(=O)Nc4ccc(F)cc4Cl)CC3)n2n1 (stereo partly drawn) [Example 114, N-{trans-4-[(2-chloro-4-fluorophenyl)carbamoyl]cyclohexyl}-6-[(2-hydroxypropyl)amino]imidazo[1,2-b]pyridazine-3-carboxamide]	≥ 50000	860
CNC(=O)c1[nH]cnc1C(=O)NC12CCC(C(=O)Nc3ccc(F)cc3Cl)(CC1)CC2 [Example 115, N^4-{4-[(2-chloro-4-fluorophenyl)carbamoyl]bicyclo[2.2.2]oct-1-yl}-N^5-methyl-1H-imidazole-4,5-dicarboxamide]	≥ 50000	160
CNC(=O)c1[nH]cnc1C(=O)NC12CCC(C(=O)Nc3c(F)cc(F)cc3Cl)(CC1)CC2 [Example 116, N^4-{4-[(2-chloro-4,6-difluorophenyl)carbamoyl]bicyclo[2.2.2]oct-1-yl}-N^5-methyl-1H-imidazole-4,5-dicarboxamide]	8700	580
O=C(NC12CCC(C(=O)Nc3ccc(F)cc3Cl)(CC1)CC2)c1cnn2cccnc12 [Example 117, N-{4-[(2-chloro-4-fluorophenyl)carbamoyl]bicyclo[2.2.2]oct-1-yl}pyrazolo[1,5-a]pyrimidine-3-carboxamide]	≥ 50000	340
Cc1cc(NC(=O)C23CCC(NC(=O)c4cnn5cccnc45)(CC2)CC3)c(Cl)cc1F [Example 118, N-{4-[(2-chloro-4-fluoro-5-methylphenyl)carbamoyl]bicyclo[2.2.2]oct-1-yl}pyrazolo[1,5-a]pyrimidine-3-carboxamide]	≥ 50000	89
